The target in the assay is T1, Caspase-3 (Homo sapiens, UniProt P42574).
T1 sequence (P42574 whole entry): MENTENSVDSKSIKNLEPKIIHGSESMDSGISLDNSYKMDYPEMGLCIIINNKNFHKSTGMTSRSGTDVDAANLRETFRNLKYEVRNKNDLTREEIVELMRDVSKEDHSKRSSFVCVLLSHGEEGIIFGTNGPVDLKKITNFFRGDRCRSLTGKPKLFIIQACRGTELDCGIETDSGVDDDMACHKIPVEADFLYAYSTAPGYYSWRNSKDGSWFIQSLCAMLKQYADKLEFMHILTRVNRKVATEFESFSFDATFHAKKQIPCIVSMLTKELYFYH
Put plainly: activation of caspase-3 zymogen – biochemical, absorbance, dose response (AID 489014).

The EC50 is the midpoint of the concentration-response curve. Lower therefore signals a more potent agent. Regarding `O=c1c2c(-c3ccccc3)[nH]n(-c3ccccc3)c-2c(O)n1-c1ccccc1` [SMR000269383], the concentration giving a half-maximal response (EC50) was above 85.3 µM.
For `O=C(CC1=NC2(CCCC2)Cc2ccccc21)C(=O)NN=Cc1ccccc1O` [SMR000219463] the value was above 85.3 µM.

Values taken from BindingDB's records for doi:10.7270/Q2Z31X4P (The Scripps Research Institute Molecular Screening Center, 2010).
